# Like-named read-outs stand apart in the source and are kept apart here.
# Assays:
# [1] = system: subjects with MDD at imminent risk for suicide; assay: MADRS total score, sustained response ([…]2001); type: in vivo, human; conditions: 84 mg; for MADRS total score change from baseline, Diff. of LS Means (minus Placebo): ANCOVA LOCF
# Excerpt: Primary efficacy variable/Primary Time point: Change from baseline (Day 1, predose) to Day 1, 4-hours postdose in MADRS total score. The MADRS consists of 10 items that cover all of the core depressive symptoms, with each item scoring from 0 (item is not present or is normal) to 6 (severe or continuous presence of the symptom). A higher score represents a more severe condition.
# The primary efficacy endpoint is the change in MADRS total score from baseline to Day 1: 4-hours postdose. MADRS total scores range from 0 to 60. […] As this is a phase 2a proof-of-concept study, statistical significance is based on a two-sided alpha level of 0.20. All p-values presented in this document are two-sided.
# Sustained response is defined as at least 50% reduction from baseline in MADRS total score with onset on Day 1: 4 hours postdose that is maintained through the end of the double-blind phase (Day 25). Four subjects in the esketamine 84 mg group and 2 subjects in the placebo group had sustained response throughout the double-blind phase.
# [2] = system: subjects with MDD at imminent risk for suicide; type: in vivo, human; conditions: 84 mg
# Procedure: Transient blood pressure increases peaked for the esketamine group at approximately 40 minutes post dose with the maximum mean increases (across all dosing days) in systolic BP being 8.7 in the placebo group and 16.7 in the esketamine 84 mg group. The maximum mean increases (across all dosing days) in diastolic BP were 7.6 in the placebo group and 11.9 in the esketamine 84 mg group. […] See, FIGS. 46 and 47.
# [3] = single dose study, 72 mg intranasal
# Procedure: (§1) This study includes a single dose and 14-day repeated dose neurotoxicity studies with intranasally administered esketamine in female rats 12 to 14 weeks of age. These studies were conducted to investigate whether single or repeated intranasal administrations of esketamine induced neurodegenerative changes in the rat brain. The study results were used to estimate an esketamine exposure-based safety margin compared with the maximum dose of esketamine administered intranasally to depressed adult patients in clinical trials.
# The vehicle- and the 36 and 54 mg-dosed groups consisted of 24 animals per group, while the 72 mg-dosed and positive control groups involved 30 animals per group. Four satellite animals were added to the esketamine HCl-dosed groups of main study animals for toxicokinetic (TK) purposes. In these animals the plasma exposure to esketamine was measured on the day of dosing at various time points up to and including 24 hours after the first instillation.
# [4] = 14-day study, 54 mg/day intranasal
# Procedure: as §1
# Each group of main study animals consisted of 12 female rats. Four satellite animals were added to the esketamine HCl-dosed groups of main study animals for TK purposes. The plasma exposure to esketamine was measured in these animals on the first and the last day of dosing at various time points up to and including 24 hours after the first instillation.
# [5] = system: patients with treatment-resistant depression (TRD); assay: MADRS total score, response, remission (phase 2 dose-response study, Example 7); type: in vivo, human; conditions: for MADRS total score, LS mean difference vs placebo (all dose groups): 28, 56, 84 mg; for Remitters, % / Responders, %: study period endpoint
# Procedure: Efficacy was assessed with the Montgomery-Asberg Depression Rating Scale (MADRS; Montgomery, “A new depression scale designed to be sensitive to change”, Br. J. Psychiatry, 1979, 134:382-389; Williams, “Development and reliability of a structured interview guide for the Montgomery Asberg Depression Rating Scale (SIGMA)”, Br. J. Psychiatry, 2008, 192(1):52-58) on days 1 (pre-dose and 2 hour post-dose), 2, 8 (pre-dose), 9, and 15, using the structured interview guide (SIGMA). See, Williams 2008.
# Efficacy data were analyzed in intent-to-treat (ITT) analysis sets for each period and phase. The ITT analysis sets included all participants who received at least 1 dose of study medication during that period or phase and had baseline and at least one post-baseline MADRS total score within that period or phase.
# The primary efficacy endpoint—change from baseline (pre-dose, day 1 in each period) to endpoint (day 8 in each period) in MADRS total score—was analyzed using the analysis of covariance (ANCOVA) model. For Period 1, the model included treatment and country as factors, and baseline MADRS total score as covariate. For Period 2, the model included treatment and country as factors, Period 2 baseline QIDS-SR16 score (moderate or severe), and Period 2 baseline MADRS total score as a continuous covariate.
# Given the consistency between Periods 1 and 2 results (Chi 2016), esketamine dose groups were compared to placebo using a combined test on the weighted test statistics for each period in the double-blind treatment phase. A dose-response analysis on primary efficacy endpoint was performed using data combined from both periods. The Multiple Comparison Procedure-Modelling (MCP-Mod) methodology was performed (Williams 2008; Bretz, “Combining multiple comparisons and modeling techniques in dose-response studies”, Biometrics, 2005, 61:738-748).
# [6] = system: patients with treatment-resistant depression (TRD); assay: Vital signs: blood pressure and heart rate (Example 7); type: in vivo, human
# Procedure: (§2) Adverse events were monitored throughout the study. Other safety assessments (i.e., laboratory tests, vital signs, physical examination) were performed at pre-specified time points. Vital signs, the Clinician Administered Dissociative States Scale (CADSS; Bremner, “Measurement of dissociative states with the clinician-administered dissociative states scale (CADSS)”, J. Traumatic Stress, 1998, 11(1):125-136), and the 4-item positive symptom subscale from the Brief Psychiatric Rating Scale (BPRS; Overall, “The Brief Psychiatric Rating Scale. Psychological Reports”, 1962, 10:799-812) were assessed pre-dose, at 40 minutes, and 2 hours post-dose.
# [7] = system: patients with treatment-resistant depression (TRD); assay: CADSS (Example 7); parameters: species or system human; conditions: in vivo
# Procedure: as §2
# subjects with TRD = conditions: human, in vivo, other: intranasal
# Procedure: The Clinician Administered Dissociative States Scale (CADSS) was measured prior to the start of each dose, at 40 minutes, and 1.5 hours postdose.
# Procedure for adult subjects with TRD: Blood pressure and pulse/heart rate measurements were assessed supine with a completely automated device. Manual techniques were used only if an automated device is not available. Blood pressure and pulse/heart rate measurements were preceded by at least 5 minutes of rest in a quiet setting without distractions (e.g., television, cell phones).
# Descriptive statistics of temperature, pulse/heart rate, respiratory rate, pulse oximetry, and blood pressure (systolic and diastolic) (supine) values and changes from baseline were summarized at each scheduled time point. The percentage of subjects with values beyond clinically important limits were summarized.
smiles,measurement,setting,value
"CN[C@]1(c2ccccc2Cl)CCCCC1=O [esketamine, (S)-2-(2-chlorophenyl)-2-(methylamino)cyclohexanone]",subjects with sustained response throughout the double-blind phase,[1]; ≥50% MADRS reduction from Day 1 4 h through Day 25,Four
same,"MADRS total score change from baseline, Diff. of LS Means (minus Placebo)","[1]; Day 1(DB): 4 H, ITT",−5.3
same,"MADRS total score change from baseline, Diff. of LS Means (minus Placebo)","[1]; Day 2(DB), ITT",−7.2
same,"MADRS total score change from baseline, Diff. of LS Means (minus Placebo)","[1]; End Point(DB), ITT",−4.5
same,Day 25 sustained response (MADRS) No: no. of subjects,[1]; ITT,30
same,"Withdrawn from double-blind phase: Lack of Efficacy, percent of subjects",[1]; all randomized analysis set,(2.8%)
same,"Withdrawn from double-blind phase: Lack of Efficacy, number of subjects","[1]; all randomized analysis set, N = 36",1
same,Day 25 sustained response (MADRS) Yes: no. of subjects,"[1]; at least 50 percent reduction from Day 1 through Day 25, ITT",4
same,blood pressure returning to normal range by,[2],≤ 2 hours post dose
same,maximum mean increase in diastolic BP,[2]; across all dosing days,11.9
same,maximum mean increase in systolic BP,[2]; across all dosing days,16.7
same,AUC-based safety margin compared with the maximum 84 mg clinical dose,[3],~86 fold
same,Cmax-based safety margin compared with the maximum 84 mg clinical dose,[3],approximately 60 fold
same,AUC-based safety margin compared with the maximum 84 mg clinical dose,[4],~11 fold
same,Cmax-based safety margin compared with the maximum 84 mg clinical dose,[4],approximately 17 fold
same,proportion of responders (≥50% improvement in MADRS),"[5]; 84 mg, Period 2 endpoint",50.0%
same,"MADRS total score, LS mean difference vs placebo (all dose groups)","[5]; Period 1, baseline to day 8",−5.0 to −10.5
same,"Remitters, %","[5]; Period 1, 84 mg",(25.0) %
same,"Responders, %","[5]; Period 1, 84 mg",(41.7) %
same,"MADRS total score, LS mean difference vs placebo (all dose groups)","[5]; Period 2, day 8 to day 15",−3.1 to −6.9
same,"MADRS total score, LS mean change","[5]; Period 2, change at study period endpoint, 56 mg",−8.9
same,"Remitters, %","[5]; Period 2, 28 mg",(12.5) %
same,"Responders, %","[5]; Period 2, 28 mg",(12.5) %
same,"Remitters, %","[5]; Period 2, 84 mg",(20.0) %
same,maximum diastolic blood pressure value,[6]; 10 or 40 minutes post-dose,115 mmHg
same,maximum systolic blood pressure value,[6]; 10 or 40 minutes post-dose,199 mmHg
same,maximum mean change in diastolic blood pressure,[6]; dosing days,10.3 mmHg
same,maximum mean change in heart rate,[6]; dosing days,9.4 bpm
same,maximum mean change in systolic blood pressure,[6]; dosing days,19.0 mmHg
same,elevated blood pressure returned to the normal range by,[6]; in vivo,≤ 2 hours post-dose
same,perceptual changes/dissociative symptoms (CADSS) peaked around,[7],30 to 40 min
same,perceptual changes/dissociative symptoms (CADSS) resolved by,[7],≤ 2 h
same,maximum mean increase in diastolic BP,adult subjects with TRD; across all dosing days,8.1
same,time blood pressure returned to normal range,adult subjects with TRD; double-blind phase,90 min
same,time of peak of transient blood pressure increase post dose,adult subjects with TRD; double-blind phase,approximately 40 minutes
same,dissociative and perceptual change symptoms (CADSS) resolved by,subjects with TRD,≤ 1.5 hours post dose

# — patent publication US11883526B2 (priority 2019, dated 2024)
